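Test compounds were applied to cells in 96-well plates for 48 hours at 5 doses. Abbreviation: GI50, concentration required for 50% inhibition of growth.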 Calls of active or inactive are those of the source. No stated cut-off is given here; in the data, active = GI50 up to about 1.1 µM and inactive = higher.
Key:
Assay in all cases: NCI anticancer screen, dose series, 48 h
[1] = tested on: OVCAR-4
[2] = tested on: HCT-15
[3] = tested on: MOLT-4
[4] = tested on: 786-0
[5] = tested on: K562
[6] = tested on: NCI-H23
[7] = tested on: HT-29
[8] = tested on: LOX IMVI
[9] = tested on: OVCAR-5
[10] = tested on: UACC-62
[11] = tested on: HCT-116
[12] = tested on: MDA-N
[13] = tested on: IGROV-1
[14] = tested on: CCRF-CEM
[15] = tested on: SNB-75
[16] = tested on: UACC-257
[17] = tested on: NCI-H460
[18] = tested on: MCF7
[19] = tested on: NCI-H226
[20] = tested on: HL-60
[21] = tested on: M14
[22] = tested on: A498
[23] = tested on: SF-268
[24] = tested on: HOP-92
[25] = tested on: SF-539
[26] = tested on: T47D
[27] = tested on: UO-31
[28] = tested on: HOP-62
[29] = tested on: Malme-3M
[30] = tested on: SF-295
[31] = tested on: SW-620
[32] = tested on: NCI-H522
[33] = tested on: ACHN
[34] = tested on: SK-MEL-5
[35] = tested on: TK-10
[36] = tested on: RPMI-8226
[37] = tested on: OVCAR-3
[38] = tested on: SK-MEL-2
[39] = tested on: HCC 2998
[40] = tested on: KM12
[41] = tested on: SK-MEL-28
[42] = tested on: PC-3
[43] = tested on: EKVX
[44] = tested on: COLO 205
[45] = tested on: MDA-MB-231
[46] = tested on: DU-145
[47] = tested on: SR
[48] = tested on: SNB-19
[49] = tested on: MDA-MB-435
[50] = tested on: BT-549
[51] = tested on: CAKI-1
[52] = tested on: SN12C
[53] = tested on: A549
[54] = tested on: U-251
[55] = tested on: NCI/ADR-RES
[56] = tested on: SK-OV-3
[57] = tested on: OVCAR-8

Question: How did the GI50 [1] turn out when `O=C1OS2(OCc3cccc4cccc2c34)c2ccccc21` (stereo not drawn) was run?
Answer: > 100 µM (inactive)

Question: And the GI50 [2]?
Answer: > 100 µM

Question: And the GI50 [3]?
Answer: > 100 µM (inactive)

Question: What about the GI50 [4] of the same molecule?
Answer: > 100 µM (inactive)

Question: What about the GI50 [5] of the same molecule?
Answer: > 100 µM (inactive)

Question: And the GI50 [6]?
Answer: > 100 µM (inactive)

Question: What about the GI50 [7] of the same molecule?
Answer: > 100 µM (inactive)

Question: What about the GI50 [8] of the same molecule?
Answer: > 100 µM (inactive)

Question: What about the GI50 [9] of the same molecule?
Answer: > 100 µM (inactive)

Question: And the GI50 [10]?
Answer: > 100 µM (inactive)

Question: And the GI50 [11]?
Answer: > 100 µM (inactive)

Question: What about the GI50 [12] of the same molecule?
Answer: > 100 µM (inactive)

Question: What about the GI50 [13] of the same molecule?
Answer: > 100 µM (inactive)

Question: And the GI50 [14]?
Answer: 40.3 µM (inactive)

Question: What about the GI50 [15] of the same molecule?
Answer: > 100 µM (inactive)

Question: And the GI50 [16]?
Answer: > 100 µM (inactive)

Question: What about the GI50 [17] of the same molecule?
Answer: > 100 µM (inactive)

Question: What about the GI50 [18] of the same molecule?
Answer: > 100 µM (inactive)

Question: What about the GI50 [19] of the same molecule?
Answer: > 100 µM (inactive)

Question: What about the GI50 [20] of the same molecule?
Answer: > 100 µM (inactive)

Question: And the GI50 [21]?
Answer: > 100 µM (inactive)

Question: And the GI50 [22]?
Answer: > 100 µM (inactive)

Question: What about the GI50 [23] of the same molecule?
Answer: > 100 µM (inactive)

Question: What about the GI50 [24] of the same molecule?
Answer: > 100 µM (inactive)

Question: And the GI50 [25]?
Answer: > 100 µM (inactive)

Question: And the GI50 [26]?
Answer: > 100 µM (inactive)

Question: What about the GI50 [27] of the same molecule?
Answer: > 100 µM (inactive)

Question: And the GI50 [28]?
Answer: > 100 µM (inactive)

Question: And the GI50 [29]?
Answer: > 100 µM (inactive)

Question: What about the GI50 [30] of the same molecule?
Answer: > 100 µM (inactive)

Question: And the GI50 [31]?
Answer: > 100 µM (inactive)

Question: What about the GI50 [32] of the same molecule?
Answer: 50.8 µM (inactive)

Question: And the GI50 [33]?
Answer: > 100 µM (inactive)

Question: What about the GI50 [34] of the same molecule?
Answer: > 100 µM (inactive)

Question: What about the GI50 [35] of the same molecule?
Answer: > 100 µM (inactive)

Question: And the GI50 [36]?
Answer: > 100 µM (inactive)

Question: What about the GI50 [37] of the same molecule?
Answer: > 100 µM (inactive)

Question: What about the GI50 [38] of the same molecule?
Answer: > 100 µM (inactive)

Question: And the GI50 [39]?
Answer: > 100 µM (inactive)

Question: What about the GI50 [40] of the same molecule?
Answer: > 100 µM (inactive)

Question: And the GI50 [41]?
Answer: > 100 µM (inactive)

Question: What about the GI50 [42] of the same molecule?
Answer: > 100 µM (inactive)

Question: What about the GI50 [43] of the same molecule?
Answer: > 100 µM (inactive)

Question: And the GI50 [44]?
Answer: > 100 µM (inactive)

Question: And the GI50 [45]?
Answer: > 100 µM (inactive)

Question: What about the GI50 [46] of the same molecule?
Answer: > 100 µM (inactive)

Question: And the GI50 [47]?
Answer: > 100 µM (inactive)

Question: And the GI50 [48]?
Answer: > 100 µM (inactive)

Question: And the GI50 [49]?
Answer: > 100 µM (inactive)

Question: What about the GI50 [50] of the same molecule?
Answer: > 100 µM (inactive)

Question: And the GI50 [51]?
Answer: > 100 µM (inactive)

Question: And the GI50 [52]?
Answer: > 100 µM (inactive)

Question: What about the GI50 [53] of the same molecule?
Answer: > 100 µM (inactive)

Question: What about the GI50 [54] of the same molecule?
Answer: > 100 µM (inactive)

Question: What about the GI50 [55] of the same molecule?
Answer: > 100 µM (inactive)

Question: What about the GI50 [56] of the same molecule?
Answer: > 100 µM (inactive)

Question: What does the source list for `CC(C)(C)OC(=O)Nc1cc(-c2ccccc2)co1`?
Answer: GI50 [1]: > 100 µM (inactive); GI50 [2]: > 100 µM; GI50 [3]: 33.8 µM (inactive); GI50 [4]: > 100 µM (inactive); GI50 [5]: 67 µM (inactive); GI50 [6]: > 100 µM (inactive); GI50 [57]: > 100 µM (inactive); GI50 [8]: > 100 µM (inactive); GI50 [9]: > 100 µM (inactive); GI50 [10]: > 100 µM (inactive); GI50 [11]: 83.9 µM (inactive); GI50 [12]: 86.3 µM (inactive); GI50 [13]: 87.5 µM (inactive); GI50 [14]: 51.8 µM (inactive); GI50 [16]: > 100 µM (inactive); GI50 [18]: 83.8 µM (inactive); GI50 [19]: > 100 µM (inactive); GI50 [20]: > 100 µM (inactive); GI50 [21]: > 100 µM (inactive); GI50 [22]: > 100 µM (inactive); GI50 [23]: 22.7 µM (inactive); GI50 [24]: 25.8 µM (inactive); GI50 [25]: > 100 µM (inactive); GI50 [26]: 38.4 µM (inactive); GI50 [27]: > 100 µM (inactive); GI50 [28]: > 100 µM (inactive); GI50 [30]: > 100 µM (inactive); GI50 [31]: > 100 µM (inactive); GI50 [32]: 17.3 µM (inactive); GI50 [33]: > 100 µM (inactive); GI50 [34]: 96.8 µM (inactive); GI50 [35]: > 100 µM (inactive); GI50 [36]: 41.1 µM (inactive); GI50 [37]: 94.2 µM (inactive); GI50 [38]: 71.1 µM (inactive); GI50 [39]: > 100 µM (inactive); GI50 [40]: > 100 µM (inactive); GI50 [41]: > 100 µM (inactive); GI50 [42]: 50.1 µM (inactive); GI50 [43]: > 100 µM (inactive); GI50 [44]: > 100 µM (inactive); GI50 [45]: 68.7 µM (inactive); GI50 [46]: > 100 µM (inactive); GI50 [48]: > 100 µM (inactive); GI50 [49]: 94 µM (inactive); GI50 [50]: 79.8 µM (inactive); GI50 [51]: > 100 µM (inactive); GI50 [52]: 95.9 µM (inactive); GI50 [53]: 78.2 µM (inactive); GI50 [54]: 54.6 µM (inactive); GI50 [55]: > 100 µM (inactive); GI50 [56]: > 100 µM (inactive)

— ChEMBL document CHEMBL1201862, “PubChem BioAssay data set” (2004)
